Experimental data published in ChEMBL document CHEMBL4418493, “N-hydroxyformamide compounds and compositions comprising them for use as BMP1, TLL1 and/or TLL2 inhibitors” (2018).

Test: Drug metabolism in heparinized pooled human plasma at pH 7.5 assessed as formation of (((3-ethoxy-5-(5-((((R)-2-((R)-1-(N-hydroxyformamido)propyl)heptanamido)methyl)carbamoyl)furan-2-yl)phenyl)(hydroxy)phosphoryl)oxy)methyl isopropyl carbonate at 100 to 2000 ng/ml incubated up to 4 or 24 hrs by LC-MS/MS analysis
Assay type: ADME, cell-free
Conditions: pH 7.5, 24 h

Drug metabolism: Metabolite_Detected
SMILES: CCCCC[C@@H](C(=O)NCNC(=O)c1ccc(-c2cc(OCC)cc(P(=O)(OCOC(=O)OC(C)C)OCOC(=O)OC(C)C)c2)o1)[C@@H](CC)N(O)C=O
